{"source": "patent US10138255B2", "about": "“Piperazine derivatives as HIV protease inhibitors” (Merck Sharp & Dohme Corp., priority 2014, dated 2018)"}
{"test_system": "HIV-1 (H9IIIB strain)", "experiment": "Cell-Based HIV Infection Assay Using a Reporter (MT4-GFP cells)", "conditions": "Human immunodeficiency virus 1, inflection point (IP) of viral growth inhibition; MT4-GFP cells infected with HIV-1 H9IIIB; 50% normal human serum; mean of at least two independent experiments; read-out: Cell Based IP (50% NHS)", "how_it_was_run": "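Inflection point from a 4-parameter curve of % viral growth inhibition, normalised to DMSO and triple-drug controls, using the 48 h/24 h ratio of GFP-positive cells (R0). MT4-GFP cells pre-infected 24 h with HIV-1 H9IIIB at low MOI; compounds tested in 50% normal human serum, 0.4% DMSO; mean of ≥2 experiments.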", "units": {"EC50": "nM"}}
{"smiles": "CO[C@H]1CC[C@H]([C@H](c2ccc(Cl)cc2)[C@H](N)C(=O)Nc2cccc(F)c2CC[C@H]2CN[C@@H]3CCCS(=O)(=O)N2C3)CC1", "note": "[Example 7, (βR)-4-Chloro-N-(2-{2-[(6R,9S)-2,2-dioxido-2-thia-1,7-diazabicyclo[4.3.1]dec-9-yl]ethyl}-3-fluorophenyl)-β-[(1r,4R)-4-methoxycyclohexyl]-L-phenylalaninamide]", "EC50": 3.1}
{"smiles": "N[C@H](C(=O)Nc1cccc(F)c1CCC1CNC2CCCS(=O)(=O)N1C2)[C@@H](c1ccc(Cl)cc1)c1ccc(C(F)(F)F)nc1", "note": "(stereo partly drawn) [Example 89, (βS)-4-chloro-N-{2-[2-(2,2-dioxido-2-thia-1,7-diazabicyclo[4.3.1]dec-9-yl)ethyl]-3-fluorophenyl}-β-[6-(trifluoromethyl)pyridin-3-yl]-L-phenylalaninamide]", "EC50": 5.1}
{"smiles": "CC(C)n1cc([C@H](c2ccc(Cl)cc2)[C@H](N)C(=O)Nc2cccc(F)c2CCC2CNC3CCCS(=O)(=O)N2C3)ccc1=O", "note": "(stereo partly drawn) [Example 95, (βS)-4-chloro-N-{2-[2-(2,2-dioxido-2-thia-1,7-diazabicyclo[4.3.1]dec-9-yl)ethyl]-3-fluorophenyl}-β-[1-(1-methylethyl)-6-oxo-1,6-dihydropyridin-3-yl]-L-phenylalaninamide]", "EC50": 63}
{"smiles": "CCO[C@H]1CC[C@H](C(c2ccc(Cl)c(F)c2)[C@H](N)C(=O)Nc2cccc(F)c2CC[C@H]2CN[C@@H]3CCCS(=O)(=O)N2C3)CC1", "note": "(stereo partly drawn) [Example 248, (βR).4-chloro-N-(2-{2-[(6R,9S)-2,2-dioxido-2-thia-1,7-diazabicyclo[4.3.1]dec-9-yl]ethyl}-3-fluorophenyl)-β-[(1r,4R)-4-ethoxycyclohexyl]-3-fluoro-L-phenylalaninamide]", "EC50": 5.5}
{"smiles": "CO[C@H]1CC[C@H]([C@H](c2ccc(F)cc2)[C@H](N)C(=O)N[C@H]2CCCC[C@@H]2CC[C@H]2CN[C@@H]3CCCS(=O)(=O)N2C3)CC1", "note": "[Example 189, (βR)-N-[(1S,2R)-2-{2-[(6R,9S)-2,2-dioxido-2-thia-1,7-diazabicyclo[4.3.1]dec-9-yl]ethyl}cyclohexyl]-4-fluoro-β-[(1r,4R)-4-methoxycyclohexyl]-L-phenylalaninamide]", "EC50": 45}
{"smiles": "CC1(C)CC([C@H](c2ccc(Cl)cc2)[C@H](NCC2CC2)C(=O)N[C@H]2CCC[C@@H]2CC[C@H]2CN[C@@H]3CCCS(=O)(=O)N2C3)CCO1", "note": "(stereo partly drawn) [Example 181, (βR)-4-chloro-Nα-(cyclopropylmethyl)-β-(2,2-dimethyltetrahydro-2H-pyran-4-yl)-N-[(1S,2R)-2-{2-[(6R,9S)-2,2-dioxido-2-thia-1,7-diazabicyclo[4.3.1]dec-9-yl]ethyl)cyclopentyl]-L-phenylalaninamide]", "EC50": 640}
{"smiles": "N[C@H](C(=O)Nc1cccc(F)c1CCC1CNC2CCCS(=O)(=O)N1C2)[C@@H](c1ccc(Cl)cc1)C1CCOC(CC(F)(F)F)C1", "note": "(stereo partly drawn) [Example 163, (βR)-4-chloro-N-{2-[2-(2,2-dioxido-2-thia-1,7-diazabicyclo[4.3.1]dec-9-yl)ethyl]-3-fluorophenyl}-β-[2-(2,2,2-trifluoroethyl)telrahydro-2H-pyran-4-yl]-L-phenylalaninamide]", "EC50": 19}
{"smiles": "C[C@@H]1C[C@H]([C@H](c2ccc(F)cc2)[C@H](N)C(=O)Nc2c(F)ccc(F)c2CC[C@H]2CN[C@@H]3CCCS(=O)(=O)N2C3)C[C@H](C)O1", "note": "[Example 146, (βR)-β-[(2R,4r,6S)-2,6-dimethyltetrahydro-2H-pyran-4-yl]-N-(2-{2-[(6R,9S)-2,2-dioxido-2-thia-1,7-diazabicyclo[4.3.1]dec-9-yl]ethyl}-3,6-difluorophenyl)-4-fluoro-L-phenylalaninamide]", "EC50": 25}
{"smiles": "CC(C)[C@H](c1ccc(Cl)cc1)[C@H](N)C(=O)Nc1cncc(F)c1CC[C@H]1CN[C@@H]2CCCS(=O)(=O)N1C2", "note": "[Example 238, (2S,3R)-2-amino-3-(4-chlorophenyl)-N-(4-(2-((6R,9S)-2,2-dioxido-2-thia-1,7-diazabicyclo[4.3.1]decan-9-yl)ethyl)-5-fluoropyridin-3-yl)-4-methylpentanamide]", "EC50": 13}
{"smiles": "CC1(C)CC([C@H](c2ccc(Cl)cc2)[C@H](NCCOCc2ccccc2)C(=O)N[C@H]2CCC[C@@H]2CC[C@H]2CN[C@@H]3CCCS(=O)(=O)N2C3)CCO1", "note": "(stereo partly drawn) [Example 230, (βR)-Nα-[2-(benzyloxy)ethyl]-4-chloro-β-(2,2-dimethyltetrahydro-2H-pyran-4-yl)-N-[(1S,2R)-2-{2-[(6R,9S)-2,2-dioxido-2-thia-1,7-diazabicyclo[4.3.1]dec-9-yl]ethyl}cyclopentyl]-L-phenylalaninamide]", "EC50": 310}
{"smiles": "COC(=O)N[C@H](C(=O)Nc1ccc(F)c(F)c1CC[C@H]1CN[C@@H]2CCCS(=O)(=O)N1C2)[C@@H](c1ccc(F)cc1)C1CCOC(C)(C)C1", "note": "(stereo partly drawn) [Example 28, Methyl [(1S,2R)-2-(2,2-dimethyltetrahydro-2H-pyran-4-yl)-1-[(2-{2-[(6R,9S)-2,2-dioxido-2-thia-1,7-diazabicyclo[4.3.1]dec-9-yl]ethyl}-3,4-difluorophenyl)carbamoyl]-2-(4-fluorophenyl)ethyl]carbamate]", "EC50": 13}
{"smiles": "C[C@@H]1CC([C@H](c2ccc(F)cc2)[C@H](N)C(=O)Nc2cccc(C(F)(F)F)c2CC[C@H]2CN[C@@H]3CCCS(=O)(=O)N2C3)C[C@H](C)O1", "note": "(stereo partly drawn) [Example 204, (βR)-β-[(2R,6S)-2,6-dimethyltetrahydro-2H-pyran-4-yl]-N-[2-{2-[(6R,9S)-2,2-dioxido-2-thia-1,7-diazabicyclo[4.3.1]dec-9-yl]ethyl}-3-(trifluoromethyl)phenyl]-4-fluoro-L-phenylalaninamide]", "EC50": 230}
{"smiles": "COC(=O)N[C@@H](C(=O)N[C@H]1CCC[C@@H]1CC[C@H]1CN[C@@H]2CCCS(=O)(=O)N1C2)[C@@H](c1ccc(Cl)cc1)C1CCN(C(=O)OC2(C)CC2)CC1", "note": "[Example 138, 1-methylcyclopropyl 4-{(1R,2R)-1-(4-chlorophenyl)-3-{[(1S,2R)-2-{2-[(6R,9S)-2,2-dioxido-2-thia-1,7-diazabicyclo[4.3.1]dec-9-yl]ethyl}cyclopentyl]amino}-2-[(methoxycarbonyl)amino]-3-oxopropyl}piperidine-1-carboxylate]", "EC50": 490}
{"smiles": "N[C@H](C(=O)Nc1cncc(F)c1CC[C@H]1CN[C@@H]2CCCS(=O)(=O)N1C2)[C@@H](c1ccc(Cl)c(F)c1)C1CCCCC1", "note": "[Example 244, (2S,3R)-2-amino-3-(4-chloro-3-fluorophenyl)-3-cyclohexyl-N-(4-(2-((6R,9S)-2,2-dioxido-2-thia-1,7-diazabicyclo[4.3.1]decan-9-yl)ethyl)-5-fluoropyridin-3-yl)propanamide]", "EC50": 4.3}
{"smiles": "COC(=O)N[C@H](C(=O)Nc1cccc(F)c1CC[C@H]1CN[C@@H]2CCCS(=O)(=O)N1C2)[C@@H](c1ccc(Cl)cc1)c1csc(C(F)(F)F)n1", "note": "[Example 252, methyl {(1S,2R)-2-(4-chlorophenyl)-1-[(2-{2-[(6R,9S)-2,2-dioxido-2-thia-1,7-diazabicyclo[4.3.1]dec-9-yl]ethyl}-3-fluorophenyl)carbamoyl]-2-[2-(trifluoromethyl)-1,3-thiazol-4-yl]ethyl}carbamate]", "EC50": 17}
{"smiles": "CC(F)(F)c1cncc([C@H](c2ccc(Cl)cc2)[C@H](N)C(=O)Nc2cccc(F)c2CCC2CNC3CCCS(=O)(=O)N2C3)c1", "note": "(stereo partly drawn) [Example 20, (βS)-4-Chloro-β-[5-(1,1-difluoroethyl)pyridin-3-yl]-N-{2-[2-(2,2-dioxido-2-thia-1,7-diazabicyclo[4.3.1]dec-9-yl)ethyl]-3-fluorophenyl}-L-phenylalaninamide]", "EC50": 11}
{"smiles": "COC(=O)N[C@H](C(=O)Nc1cccc(F)c1CC[C@H]1CN[C@@H]2CCCS(=O)(=O)N1C2)C(c1ccc(F)cc1)[C@H]1C[C@@H](C)O[C@@H](C)C1", "note": "(stereo partly drawn) [Example 83, methyl [(1S)-2-[(2R,4r,6S)-2,6-dimethyltetrahydro-2H-pyran-4-yl]-1-[(2-{2-[(6R,9S)-2,2-dioxido-2-thia-1,7-diazabicyclo[4.3.1]dec-9-yl]ethyl}-3-fluorophenyl)carbamoyl]-2-(4-fluorophenyl)ethyl]carbamate]", "EC50": 8.2}
{"smiles": "CC(C)Oc1ccc([C@H](c2ccc(Cl)cc2)[C@H](N)C(=O)Nc2cccc(F)c2CCC2CNC3CCCS(=O)(=O)N2C3)cn1", "note": "(stereo partly drawn) [Example 11, (βS)-4-Chloro-N-{2-[2-(2,2-dioxido-2-thia-1,7-diazabicyclo[4.3.1]dec-9-yl)ethyl]-3-fluorophenyl}-β-[6-(1-methylethoxy)pyridin-3-yl]-L-phenylalaninamide]", "EC50": 4}
{"smiles": "COC(=O)N[C@H](C(=O)Nc1cc(F)cc(F)c1CC[C@H]1CN[C@@H]2CCCS(=O)(=O)N1C2)[C@@H](c1ccc(Cl)cc1)C1CCOCC1", "note": "[Example 144, methyl [(1S,2R)-2-(4-chlorophenyl)-1-[(2-{2-[(6R,9S)-2,2-dioxido-2-thia-1,7-diazabicyclo[4.3.1]dec-9-yl]ethyl}-3,5-difluorophenyl)carbamoyl]-2-(tetrahydro-2H-pyran-4-yl)ethyl]carbamate]", "EC50": 21}
{"smiles": "COC(=O)N[C@H](C(=O)N[C@H]1CCCC[C@@H]1CC[C@H]1CN[C@@H]2CCCS(=O)(=O)N1C2)[C@@H](c1ccc(Cl)cc1)C(C)C", "note": "[Example 96, methyl [(1S,2S)-2-(4-chlorophenyl)-1-{[(1S,2R)-2-{2-[(6R,9S)-2,2-dioxido-2-thia-1,7-diazabicycIo[4.3.1]dec-9-yl]ethyl}cyclohexyl]carbamoyl}-3-methylbutyl]carbamate]", "EC50": 180}
{"smiles": "C[C@@H]1CC([C@H](c2ccc(F)cc2)[C@H](N)C(=O)Nc2ccc(F)c(F)c2CC[C@H]2CN[C@@H]3CCCS(=O)(=O)N2C3)C[C@H](C)O1", "note": "(stereo partly drawn) [Example 166, (βR)-β-[(2R,6S)-2,6-dimethyltetrahydro-2H-pyran-4-yl]-N-(2-{2-[(6R,9S)-2,2-dioxido-2-thia-1,7-diazabicyclo[4.3.1]dec-9-yl]ethyl}-3,4-difluorophenyl)-4-fluoro-L-phenylalaninamide]", "EC50": 25}
